The values below come from patent publication US11427561B2, “IRAK4 inhibiting agents” (BIOGEN MA INC., priority 2016, dated 2022).

Test [1] concerns the target IRAK4 (Homo sapiens (Human), UniProt Q9NWZ3). As to the kind of experiment: IRAK-4 biochemical assay, AlphaScreen format (phosphorylation of a biotin labeled peptide). The settings on record: 1 nM IRAK4, 1.6 μM peptide, 1 mM ATP, 3.5 h at RT. As to the method: Biochemical Assay: The biochemical assay is in a AlphaScreen format. The kinase reaction is based on the IRAK-4 phosphorylation of a biotin labeled peptide. The phosphopeptide is incubated with anti-phosphothreonine antibody as well as streptavidin- and protein A-coated beads. Binding of the protein-A coated beads to the antibody and the streptavidin beads to the peptide, leads to an energy transfer from one bead to the other, ultimately producing a luminescent/fluorescent signal.
Generally, the kinase reaction is carried out at 1 nM IRAK4, 1.6 μM peptide, 1 mM ATP in reaction buffer 50 mM Hepes, 60 mM NaCl, 5 mM MgCl2, 0.25 mM MnCl2, 2 mM DTT, 0.01% BSA, 0.01% Tween-20) for 3.5 h at RT.
The compounds described herein were tested for in the above biochemical assay.
For orientation: Alpha assays give light when donor and acceptor beads are brought close together.

Test [2] has as its system A549 cells. As to the kind of experiment: Cell-based assay: IL-6 ELISA quantification in A549 cells stimulated with human IL-1beta. The following applies: 2 ng/ml human IL-1beta overnight. As to the method:
Cell-based Assay: The cell-based assays is based on IL-6 ELISA quantification. Briefly, A549 cells are cultured in DMEM with 10% FBS medium. When cells reach 80% confluence they are trypsin treated and seeded 180 ul/well in 96-well plate at 2.5×10^4 cells/well. Then, 20 ul of compound serial dilutions (starting at 10 uM, 10 points) are added to the cell plate; incubate for 30 min at 37 C and stimulated with 2 ng/ml human IL-1beta 37 C, 5% CO2 overnight. The next day 100 ul of cell supernatant per well are analyzed on a Human IL-6 Quantikine ELISA kit from R&D Systems.
The compounds described herein were tested for in the above biochemical and cell-based assays.
(ELISA stands for enzyme-linked immunosorbent assay.)

For test [3], the system named is astrocytes and microglia. The settings on record: cited from earlier work.
For test [4], the system named is primary human microglia. The following applies: cited from earlier work.
For test [5], the system named is primary human astrocytes. The following applies: cited from earlier work.

Chain of IRAK4 (Q9NWZ3 whole entry, species assumed): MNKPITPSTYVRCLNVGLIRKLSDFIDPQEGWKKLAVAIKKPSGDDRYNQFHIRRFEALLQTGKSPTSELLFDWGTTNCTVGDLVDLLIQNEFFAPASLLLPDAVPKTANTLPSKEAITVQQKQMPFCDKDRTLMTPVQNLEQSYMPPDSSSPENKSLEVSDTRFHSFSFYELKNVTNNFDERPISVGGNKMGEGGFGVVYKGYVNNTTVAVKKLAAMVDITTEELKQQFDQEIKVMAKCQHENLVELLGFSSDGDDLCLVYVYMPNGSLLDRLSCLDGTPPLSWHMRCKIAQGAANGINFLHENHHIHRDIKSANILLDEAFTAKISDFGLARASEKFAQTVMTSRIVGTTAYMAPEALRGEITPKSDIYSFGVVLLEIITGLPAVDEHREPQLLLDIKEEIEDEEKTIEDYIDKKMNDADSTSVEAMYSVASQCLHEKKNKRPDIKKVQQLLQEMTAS

For `N[C@H](c1cccc(-c2ccc3cnn(-c4nccc(C(F)(F)F)n4)c3c2)n1)[C@H]1C[C@@H](O)C1` [Compound 13, (1R,3s)-3-((S)-amino(6-(1-(4-(trifluoromethyl)pyrimidin-2-yl)-1H-indazol-6-yl)pyridin-2-yl)methyl)cyclobutanol], the concentration for half-maximal inhibition (IC50) (usually the concentration at which inhibition is half-maximal) in test [1] was at most 0.1 µM. In addition, the concentration giving a half-maximal response (EC50) (in general, the concentration that produces a half-maximal response) in test [2] (Homo sapiens, A549, A549 cells) is at most 1 µM.
Taken in the same sequence, the figures for `N[C@H](c1cccc(-c2ccc3cnn(-c4cccc(CF)n4)c3c2)n1)[C@H]1C[C@@H](O)C1` [Compound 16, (1R,3s)-3-((S)-amino(6-(1-(6-(fluoromethyl)pyridin-2-yl)-1H-indazol-6-yl)pyridin-2-yl)methyl)cyclobutanol] were at most 0.1 µM and at most 1 µM.
Regarding `N[C@H](c1cccc(-c2ccc3cnn(-c4cccc(CO)n4)c3c2)n1)[C@H]1C[C@H](O)C1` [Compound 6, trans-3-((S)-amino(6-(1-(6-(hydroxymethyl)pyridin-2-yl)-1H-indazol-6-yl)pyridin-2-yl)methyl)cyclobutanol], the IC50 in test [1] was at most 0.1 µM. Further, the half-maximal effective concentration (EC50) in test [2] (Homo sapiens, A549, A549 cells) was at most 1 µM.
Taken in the same sequence, the figures for `N[C@@H](c1cccc(-c2ccc3cnn(-c4cccc(CO)n4)c3c2)n1)C1CC(F)(F)C1` [Compound 27, (R)-(6-(6-(6-(amino(3,3-difluorocyclobutyl)methyl)pyridin-2-yl)-1H-indazol-1-yl)pyridin-2-yl)methanol] were at most 0.1 µM and at most 1 µM.
Taken in the same sequence, the figures for `N[C@H](c1cccc(-c2cc(OCC(F)F)c3cnn(-c4cccc(CO)n4)c3c2)n1)[C@H]1C[C@@H](O)C1` [Compound 24, (1R,3s)-3-((S)-amino(6-(4-(2,2-difluoroethoxy)-1-(6-(hydroxymethyl)pyridin-2-yl)-1H-indazol-6-yl)pyridin-2-yl)methyl)cyclobutanol] were at most 0.1 µM and at most 1 µM.
Taken in the same sequence, the figures for `N[C@H](c1cccc(-c2ccc3cnn(-c4cncc(CO)n4)c3c2)n1)[C@H]1C[C@@H](O)C1` [Compound 9, cis 3-((S)-amino(6-(1-(6-(hydroxymethyl)pyrazin-2-yl)-1H-indazol-6-yl)pyridin-2-yl)methyl)cyclobutanol] were at most 0.1 µM and at most 1 µM.
For the molecule `CCc1cccc(-n2ncc3ccc(-c4cccc([C@@H](N)[C@H]5C[C@@H](O)C5)n4)cc32)n1` [Compound 12, (1R,3s)-3-((S)-amino(6-(1-(6-ethylpyridin-2-yl)-1H-indazol-6-yl)pyridin-2-yl)methyl)cyclobutanol], the IC50 in test [1] is at most 0.1 µM. In test [2] (Homo sapiens, A549, A549 cells), the EC50 was in the range of 1 to 10 µM.
Taken in the same sequence, the figures for `N[C@H](c1cccc(-c2ccc3cnn(-c4cccc(CF)n4)c3c2)n1)C1CC(F)(F)C1` [Compound 29, (S)-(3,3-difluorocyclobutyl)(6-(1-(6-(fluoromethyl)pyridin-2-yl)-1H-indazol-6-yl)pyridin-2-yl)methanamine] were at most 0.1 µM and at most 1 µM.
The like results for `CCOc1cc(-c2cccc([C@@H](N)C3CC(F)(F)C3)n2)cc2c1cnn2-c1cccc(CO)n1` [Compound 34, (S)-(6-(6-(6-(amino(3,3-difluorocyclobutyl)methyl)pyridin-2-yl)-4-ethoxy-1H-indazol-1-yl)pyridin-2-yl)methanol] were, in that order, at most 0.1 µM and at most 1 µM.
Taken in the same sequence, the figures for `N[C@H](c1cccc(-c2ccc3cnn(-c4nccc(CO)n4)c3c2)n1)[C@H]1C[C@@H](O)C1` [Compound 8, (1R,3S)-3-((S)-amino(6-(1-(4-(hydroxymethyl)pyrimidin-2-yl)-1H-indazol-6-yl)pyridin-2-yl)methyl)cyclobutanol] were at most 0.1 µM and at most 1 µM.
Take `N[C@H](c1cccc(-c2ccc3cnn(-c4cccc(CO)n4)c3c2)n1)C1CC(CO)C1` (stereo partly drawn) [Compound 1, (S)-(6-(6-(6-(amino(3-(hydroxymethyl)cyclobutyl)methyl)pyridin-2-yl)-1H-indazol-1-yl)pyridin-2-yl)methanol]: the IC50 in test [1] is at most 0.1 µM. Besides, the concentration for a half-maximal effect (EC50) in test [2] (Homo sapiens, A549, A549 cells) was at most 1 µM.
The like results for `N[C@H](c1cccc(-c2ccc3cnn(-c4cccc(C(F)F)n4)c3c2)n1)[C@H]1C[C@@H](O)C1` [Compound 14, cis-3-((S)-amino(6-(1-(6-(difluoromethyl)pyridin-2-yl)-1H-indazol-6-yl)pyridin-2-yl)methyl)cyclobutanol] were, in that order, at most 0.1 µM and at most 1 µM.
As for `N[C@H](c1cccc(-c2ccc3cnn(-c4cccc(CO)n4)c3c2)n1)[C@H]1C[C@@H](O)C1` [Compound 4, cis-3-((S)-amino(6-(1-(6-(hydroxymethyl)pyridin-2-yl)-1H-indazol-6-yl)pyridin-2-yl)methyl)cyclobutanol], the IC50 in test [1] is at most 0.1 µM. The same molecule yielded a concentration for a half-maximal effect (EC50) in test [2] (Homo sapiens, A549, A549 cells) of at most 1 µM.
In turn, `NC(c1cccc(-c2ccc3cnn(-c4cccc(CO)n4)c3c2)n1)C1CCC(O)C1` (single isomer, unassigned) [Compound 23, 3-(amino(6-(1-(6-(hydroxymethyl)pyridin-2-yl)-1H-indazol-6-yl)pyridin-2-yl)methyl)cyclopentanol-C] displayed an IC50 in test [1] of at most 0.1 µM. The molecule further yielded a 50% effective concentration (EC50) in test [2] (A549 cells) of at most 1 µM.
As for `N[C@H](c1cccc(-c2ccc3cnn(-c4nccc(CO)n4)c3c2)n1)C1CC(F)(F)C1` [Compound 28, (S)-(2-(6-(6-(amino(3,3-difluorocyclobutyl)methyl)pyridin-2-yl)-1H-indazol-1-yl)pyrimidin-4-yl)methanol], the 50% inhibitory concentration (IC50) in test [1] is at most 0.1 µM. This molecule returned a 50% effective concentration (EC50) in test [2] (Homo sapiens, A549, A549 cells) of at most 1 µM.
The molecule `CCc1cncc(-n2ncc3ccc(-c4cccc([C@@H](N)[C@H]5C[C@@H](O)C5)n4)cc32)n1` [Compound 15, (1R,3s)-3-((S)-amino(6-(1-(6-ethylpyrazin-2-yl)-1H-indazol-6-yl)pyridin-2-yl)methyl)cyclobutanol] showed a half-inhibitory concentration (IC50) in test [1] of at most 0.1 µM. In addition, the 50% effective concentration (EC50) in test [2] (Homo sapiens, A549, A549 cells) was at most 1 µM.
Taken in the same sequence, the figures for `N[C@H](c1cccc(-c2ccc3cnn(-c4cccc(C(F)(F)F)n4)c3c2)n1)[C@H]1C[C@@H](O)C1` [Compound 10, (1R,3S)-3-((S)-amino(6-(1-(6-(trifluoromethyl)pyridin-2-yl)-1H-indazol-6-yl)pyridin-2-yl)methyl)cyclobutanol] were at most 0.1 µM and at most 1 µM.
The like results for `CCOc1cc(-c2cccc([C@H](N)C3CC(F)(F)C3)n2)cc2c1cnn2-c1cccc(CO)n1` [Compound 33, (R)-(6-(6-(6-(amino(3,3-difluorocyclobutyl)methyl)pyridin-2-yl)-4-ethoxy-1H-indazol-1-yl)pyridin-2-yl)methanol] were, in that order, at most 0.1 µM and at most 1 µM.
On to `O=C(Nc1nc2ccccc2n1CCN1CCOCC1)c1cccc([N+](=O)[O-])c1` [IRAK-1/4 inhibitor I], for which, in test [3], the “in vitro uptake of amyloid β (Aβ)” value is recorded as “not affected”. Also, the “lipopolysaccharide-induced secretion of monocyte chemotactic protein-1 (MCP-1)” value in test [4] is “reduced”. In addition, in test [5], the “interleukin-1β-induced secretion of MCP-1” value is “reduced” and the “interleukin-1β-induced secretion of interleukin 6” value was “reduced”.
The molecule `CC1(O)CC([C@H](N)c2cccc(-c3ccc4cnn(-c5cccc(CF)n5)c4c3)n2)C1` (stereo partly drawn) [Compound 35f, 3-((S)-amino(6-(1-(6-(fluoromethyl)pyridin-2-yl)-1H-indazol-6-yl)pyridin-2-yl)methyl)-1-methylcyclobutan-1-ol] came in with an IC50 in test [1] of at most 0.1 µM. In addition, the concentration for a half-maximal effect (EC50) in test [2] (Homo sapiens, A549, A549 cells) lay within 1 to 10 µM.
`COc1cccc(-n2ncc3ccc(-c4cccc([C@@H](N)C5CC(O)C5)n4)cc32)n1` (stereo partly drawn) [Compound 35e, (S)-3-(amino(6-(1-(6-methoxypyridin-2-yl)-1H-indazol-6-yl)pyridin-2-yl)methyl)cyclobutan-1-ol] had an IC50 in test [1] of 0.1 to 1 µM. In test [2] (Homo sapiens, A549, A549 cells), the EC50 is 1 to 10 µM.
